Starred links: 1 amine or outer side, 2 acyl side, 3 side chain; linkers in the order of their positions; H or OH if unused. Non-standard residues stand in square brackets, D forms with d. Groups on a side chain read outwards from the residue. No end group written: not given here. *: point of attachment. C20 diacid = O=C(O)CCCCCCCCCCCCCCCCCCC(=O)*; γGlu = O=C(O)[C@H](CCC(=O)[*:2])N[*:1]; AEEA = NCCOCCOCC(=O)O; Aib = CC(C)(N)C(=O)O
Legend:
[1] = molecular target: Human GLP-1R (Homo sapiens, UniProt P43220); details: background statement; cited from earlier work
Chain of Human GLP-1R (P43220 24-463, species assumed): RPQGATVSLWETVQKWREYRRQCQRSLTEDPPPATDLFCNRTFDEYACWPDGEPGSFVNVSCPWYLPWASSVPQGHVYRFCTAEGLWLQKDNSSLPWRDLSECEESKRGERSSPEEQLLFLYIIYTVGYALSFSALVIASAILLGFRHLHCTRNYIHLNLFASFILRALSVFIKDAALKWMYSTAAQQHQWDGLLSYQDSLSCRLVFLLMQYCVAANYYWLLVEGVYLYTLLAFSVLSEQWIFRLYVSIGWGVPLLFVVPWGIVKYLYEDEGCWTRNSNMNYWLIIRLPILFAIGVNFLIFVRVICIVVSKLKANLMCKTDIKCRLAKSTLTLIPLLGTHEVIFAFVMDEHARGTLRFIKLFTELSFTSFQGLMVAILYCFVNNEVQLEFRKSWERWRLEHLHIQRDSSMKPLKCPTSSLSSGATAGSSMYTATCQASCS

[2] = molecular target: GCG receptor (Homo sapiens, UniProt P47871); details: background statement; cited from earlier work
Chain of GCG receptor (P47871 26-477): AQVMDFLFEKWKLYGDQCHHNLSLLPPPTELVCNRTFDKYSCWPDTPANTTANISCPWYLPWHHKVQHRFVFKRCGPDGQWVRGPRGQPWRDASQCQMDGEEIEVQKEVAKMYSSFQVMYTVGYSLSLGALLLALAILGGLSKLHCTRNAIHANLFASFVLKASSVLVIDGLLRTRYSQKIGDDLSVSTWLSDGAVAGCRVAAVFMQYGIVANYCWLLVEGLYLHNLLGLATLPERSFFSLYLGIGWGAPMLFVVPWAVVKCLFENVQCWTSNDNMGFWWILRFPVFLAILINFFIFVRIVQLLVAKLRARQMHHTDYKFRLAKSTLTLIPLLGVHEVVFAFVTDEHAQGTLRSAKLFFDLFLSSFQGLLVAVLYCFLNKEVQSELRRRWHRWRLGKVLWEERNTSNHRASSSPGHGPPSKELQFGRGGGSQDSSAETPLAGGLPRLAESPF

[3] = 26 weeks, cited from earlier work
[4] = test system: C57 BL/6J DIO mice; experiment: In vivo pharmacodynamics in high-fat diet induced obesity (DIO) mice; parameters: species or system mouse; details: Mean±SEM; for Weight change: Table 6-1; for LDL-C / TC (total cholesterol) / TG (plasma triglycerides): Table 7-1, Day 15
Text: High-fat diet induced obesity (DIO) mice have characteristics such as obesity, elevated blood sugar, insulin resistance, and lipid abnormalities, all of which are very significant metabolic syndromes similar to a human body. The effects of the compounds of the present application on body weight, food intake, blood sugar, and lipids in C57 BL/6J DIO mice were studied.
Obesity was induced in mice by feeding with a high-fat diet (60 kcal % of calories from fat). […] After grouping, one animal was raised in each cage for one week, during which each of the animals was injected subcutaneously (S.C.) with a solvent (1×PBS, 5 ml/kg) to pre-adapt the experimental operation process.
After the preparation of animals, vehicle control or compounds were administered to groups of animals by subcutaneous injection, in which the compounds were dissolved in 1×PBS, the dosage was 5 ml/kg, and the administration operation was started at 9:00 am and conducted once every three days (Q3D) for 15 days. Throughout the entire experimental study, animal weight and food intake were measured daily before administration, and compared with initial weight and food intake of the same animal before administration to calculate a percentage change in animal weight (%) and cumulative food intake, so as to evaluate the impact of compounds on changes in body weight and food intake.
At the end point of the experiment (Day 15), the body weight of the mice was measured, and then fasting blood glucose was measured by taking blood from the tail tip of broken tail without anesthesia. After the blood collection, the animals were anesthetized with CO2 and euthanized. Then, blood was taken from the heart and plasma was separated by centrifugation. The plasma was used to measure total cholesterol (TC), low-density lipoprotein cholesterol (LDL-C), triglycerides (TG), and blood insulin content. The liver was separated for homogenization, and then centrifuged to obtain the supernatant for determining triglyceride content in the liver.
All results were expressed in Mean±SEM, and the results were analyzed by one-way ANOVA using GraphPad Prism 5 software, followed by Dunnett's post hoc test compared to the Vehicle control group. The difference at the p<0.05 level was considered statistically significant.

[5] = Phase II clinical study, cited from earlier work
[6] = molecular target: T1, human GIP receptor (human) (UniProt P48546); experiment: cell-based or functional assay
T1 sequence (looked up): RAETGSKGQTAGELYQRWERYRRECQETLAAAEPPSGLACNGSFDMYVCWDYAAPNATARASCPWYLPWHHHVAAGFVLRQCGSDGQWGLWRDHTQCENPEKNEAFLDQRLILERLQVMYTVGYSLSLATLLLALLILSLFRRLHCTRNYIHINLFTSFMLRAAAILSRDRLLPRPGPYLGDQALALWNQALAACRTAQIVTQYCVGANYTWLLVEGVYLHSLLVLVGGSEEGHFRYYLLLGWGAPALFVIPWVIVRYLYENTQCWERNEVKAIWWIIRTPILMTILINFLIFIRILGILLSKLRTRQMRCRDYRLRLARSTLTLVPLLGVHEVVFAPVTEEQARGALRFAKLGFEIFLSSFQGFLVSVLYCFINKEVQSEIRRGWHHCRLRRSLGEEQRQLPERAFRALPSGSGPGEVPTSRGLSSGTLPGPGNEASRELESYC

For `CCCCCCCCCCCCCCCC(=O)N[C@@H](CCC(=O)NCCCC[C@H](NC(=O)[C@H](CC(=O)O)NC(=O)[C@H](CO)NC(=O)[C@@H](NC(=O)[C@H](Cc1ccccc1)NC(=O)[C@@H](NC(=O)CNC(=O)[C@H](CCC(N)=O)NC(=O)[C@H](CO)NC(=O)[C@@H](N)Cc1c[nH]cn1)[C@@H](C)O)[C@@H](C)O)C(=O)N[C@@H](CO)C(=O)N[C@@H](CCC(=O)O)C(=O)N[C@@H](Cc1ccc(O)cc1)C(=O)N[C@@H](CC(C)C)C(=O)N[C@@H](CC(=O)O)C(=O)N[C@@H](CO)C(=O)N[C@@H](CCC(=O)O)C(=O)N[C@@H](CCCNC(=N)N)C(=O)N[C@@H](C)C(=O)N[C@@H](CCCNC(=N)N)C(=O)N[C@@H](CC(=O)O)C(=O)N[C@@H](Cc1ccccc1)C(=O)N[C@H](C(=O)N[C@@H](C)C(=O)N[C@@H](Cc1c[nH]c2ccccc12)C(=O)N[C@@H](CC(C)C)C(=O)N[C@@H](CCC(=O)O)C(=O)N[C@@H](C)C(=O)NCC(=O)NCC(=O)O)C(C)C)C(=O)O` [Cotadutide], the “GLP-1 receptor activity EC50 relative to wild-type GLP-1” value [1] is listed as 29%, the “GCG receptor relative activity EC50” value [2] is listed as 12.8% and the “body weight, blood lipids, and levels of ALT and AST” value ([3]; 100-300 μg compared to liraglutide) is listed as “dose-dependent reduction”. The “reduction of HbA1c” value ([3]; each dose group compared to liraglutide) was “no significant advantage”.

For `CC[C@H](C)[C@H](NC(=O)[C@H](CC(C)C)NC(=O)[C@H](Cc1c[nH]c2ccccc12)NC(=O)[C@H](CCC(N)=O)NC(=O)[C@@H](NC(=O)[C@H](Cc1ccccc1)NC(=O)[C@H](C)NC(=O)[C@H](CCCCNC(=O)COCCOCCNC(=O)COCCOCCNC(=O)CC[C@H](NC(=O)CCCCCCCCCCCCCCCCCCC(=O)O)C(=O)O)NC(=O)[C@H](CCC(N)=O)NC(=O)[C@H](C)NC(=O)[C@@H](NC(=O)[C@H](CCCCN)NC(=O)[C@H](CC(=O)O)NC(=O)[C@H](CC(C)C)NC(=O)C(C)(C)NC(=O)[C@@H](NC(=O)[C@H](CO)NC(=O)[C@H](Cc1ccc(O)cc1)NC(=O)[C@H](CC(=O)O)NC(=O)[C@H](CO)NC(=O)[C@@H](NC(=O)[C@H](Cc1ccccc1)NC(=O)[C@@H](NC(=O)CNC(=O)[C@H](CCC(=O)O)NC(=O)C(C)(C)NC(=O)[C@@H](N)Cc1ccc(O)cc1)[C@@H](C)O)[C@@H](C)O)[C@@H](C)CC)[C@@H](C)CC)C(C)C)C(=O)N[C@@H](C)C(=O)NCC(=O)NCC(=O)N1CCC[C@H]1C(=O)N[C@@H](CO)C(=O)N[C@@H](CO)C(=O)NCC(=O)N[C@@H](C)C(=O)N1CCC[C@H]1C(=O)N1CCC[C@H]1C(=O)N1CCC[C@H]1C(=O)N[C@@H](CO)C(N)=O` [Tirzepatide, reference compound], the Weight change ([4]; 3 nmol/kg s.c. Q3D for 15 days) was −16.1 ± 0.71%, the Weight change ([4]; 10 nmol/kg s.c. Q3D for 15 days) was −21.6 ± 0.99% and the Weight change ([4]; 30 nmol/kg s.c. Q3D for 15 days) was −32.6 ± 1.60%. The LDL-C ([4]; 3 nmol/kg) was 0.62 ± 0.065 mM, the “TC (total cholesterol)” value ([4]; 3 nmol/kg) was 4.12 ± 0.322 mM and the “TG (plasma triglycerides)” value ([4]; 3 nmol/kg) was 0.97 ± 0.050 mM. For the same molecule, the LDL-C ([4]; 30 nmol/kg) was 0.57 ± 0.057 mM, the “TC (total cholesterol)” value ([4]; 30 nmol/kg) was 3.28 ± 0.259 mM and the “TG (plasma triglycerides)” value ([4]; 30 nmol/kg) was 0.79 ± 0.068 mM. The hypoglycemic effect ([5]; 1 mg dose vs Dulaglutide 1.5 mg) was “significantly lower than that of Dulaglutide 1.5 mg” and the weight loss effect ([5]; 1 mg dose) was “almost no weight loss effect”.

B1: Tirzepatide (peptide)
peptide: Y[Aib]QGTFTSDYSI[Aib]LDKIAQK([AEEA-AEEA-γGlu-C20 diacid])AFVQWLIAGGPSSGAPPPS-NH2
modifications: N-terminus assumed
SMILES: CC[C@H](C)[C@H](NC(=O)[C@H](CC(C)C)NC(=O)[C@H](Cc1c[nH]c2ccccc12)NC(=O)[C@H](CCC(N)=O)NC(=O)[C@@H](NC(=O)[C@H](Cc1ccccc1)NC(=O)[C@H](C)NC(=O)[C@H](CCCCNC(=O)COCCOCCNC(=O)COCCOCCNC(=O)CC[C@H](NC(=O)CCCCCCCCCCCCCCCCCCC(=O)O)C(=O)O)NC(=O)[C@H](CCC(N)=O)NC(=O)[C@H](C)NC(=O)[C@@H](NC(=O)[C@H](CCCCN)NC(=O)[C@H](CC(=O)O)NC(=O)[C@H](CC(C)C)NC(=O)C(C)(C)NC(=O)[C@@H](NC(=O)[C@H](CO)NC(=O)[C@H](Cc1ccc(O)cc1)NC(=O)[C@H](CC(=O)O)NC(=O)[C@H](CO)NC(=O)[C@@H](NC(=O)[C@H](Cc1ccccc1)NC(=O)[C@@H](NC(=O)CNC(=O)[C@H](CCC(N)=O)NC(=O)C(C)(C)NC(=O)[C@@H](N)Cc1ccc(O)cc1)[C@@H](C)O)[C@@H](C)O)[C@@H](C)CC)[C@@H](C)CC)C(C)C)C(=O)N[C@@H](C)C(=O)NCC(=O)NCC(=O)N1CCC[C@H]1C(=O)N[C@@H](CO)C(=O)N[C@@H](CO)C(=O)NCC(=O)N[C@@H](C)C(=O)N1CCC[C@H]1C(=O)N1CCC[C@H]1C(=O)N1CCC[C@H]1C(=O)N[C@@H](CO)C(N)=O
Molecule B1 has a cAMP EC50, CHO cells stably overexpressing human GIP R [6] of 0.21 nM and a cAMP Rel. A (%) against human GIP, human GIP R cells [6] of 86.2%.
